Assay results published in PMC10799935, “Discovery of a peripheral 5HT2A antagonist as a clinical candidate for metabolic dysfunction-associated steatohepatitis” (Nature Communications, 2024).
Several values for one entry are separate records, joined by “and”; a condition that tells them apart may be missing. Equal entries are not always repeated.

Experiments:
[1] = target: T1, 5HT1B (h) (Homo sapiens, UniProt P28222); assay: 5HT subtype antagonism assay (Eurofins Cerep): 5HT1B; format: cell-based; conditions: concentration not given
T1 construct: host or cells: Hela cells
T1 sequence (P28222 whole entry): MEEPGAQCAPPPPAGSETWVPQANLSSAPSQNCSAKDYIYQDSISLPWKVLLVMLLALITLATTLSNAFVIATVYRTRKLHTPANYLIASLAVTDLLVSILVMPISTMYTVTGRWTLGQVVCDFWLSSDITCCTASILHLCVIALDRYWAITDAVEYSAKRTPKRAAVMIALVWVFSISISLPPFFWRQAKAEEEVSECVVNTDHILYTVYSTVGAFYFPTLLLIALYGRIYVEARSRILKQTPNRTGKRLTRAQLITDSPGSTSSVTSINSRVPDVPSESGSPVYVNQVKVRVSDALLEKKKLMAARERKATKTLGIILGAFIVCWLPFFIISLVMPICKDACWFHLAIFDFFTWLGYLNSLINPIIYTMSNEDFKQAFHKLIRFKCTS
Description: The derivatives were evaluated at a concentration of 1 μM for their antagonist activity on the 5HT2A receptor (Tables 1–3)[33],[34]. Human 5HT2A stably transfected HEK293 cells (a type of cell derived from kidney embryos)[20] were seeded in a 96-well plate (Costar; 3603) at a density of 9 × 10^4 in 100 μL of minimum essential medium (Welgene; LM007-86) containing 10% dialyzed fetal bovine serum (Gibco; 30067–334) and 1% penicillin/streptomycin (Gibco; 15140-122) and kept in a 37 °C incubator for 24 h. The cells were stained with 100 μL of cytosolic calcium dye using the FLIPR calcium 6 assay solution (Molecular devices, #R8190) supplemented with 2.5 mM probenecid (Sigma; P8761) and incubated for 1 h at 37 °C. After 1 h, the designated amount of the compound was treated in each well and incubated for another 1 h at 37 °C. Then, the cells were loaded in a Flexstation 3 microplate reader (Molecular Devices; FlexStaion) and 50 μL of 5 μM 5HT (serotonin hydrochloride, Sigma; H9523) was injected from a source plate (Nunc 96-well polystyrene conical bottom MicroWell Plate, Thermo; 249662) and the fluorescence intensity (Ex/Em-485nm/ 525 nm) was measured. […]
Antagonism assay Source Stimulus Incubation Measured Detection Method […]

[2] = Hepatocyte stability test, human; format: in vitro ADME; conditions: both sexes, cryopreserved hepatocytes, pH 7.4, read-out: Hepatocyte stability (% remaining after 3 h)
Description: Hepatocyte incubations for the test compound (10 μM final concentration, n = 2 per each time point) were carried out in mouse, rat, dog, monkey and human cryopreserved hepatocytes, resuspended at a density of 0.5 million cells/ml of modified Krebs-Henseleit buffer (KHB). The information regarding the hepatocytes used in the experiment is as follows: liverPool® 10-donor mixed gender human (BioIVT, Cat.No. X008001, lot EAV), male cynomolgus monkey (BioIVT, Cat.No. M00305, lot COJ), male Beagle dog (BioIVT, Cat.No. M00205, lot USY), male Sprague Dawley rat (BioIVT, Cat.No. M00005, lot TQE) and male CD1 mouse (BioIVT, Cat.No.005052, lot LFF). In addition, the compound was also incubated with blank KHB. The final concentration of solvent (DMSO) was 0.1% of the final volume. The incubations were performed for 3 hours at 37°C and pH 7.4. Reactions were terminated at 0 and 180 minutes by the addition of 3 volumes of stop solution (acetonitrile/methanol (2:1, v/v) containing internal standard–diclofenac at 100 ng/ml). Samples (compound spiked buffer and compound spiked hepatocytes, as well as blank samples, i.e. hepatocytes with the same DMSO%) were then centrifuged and aliquots were transferred to 96-deep micronic tubes and frozen at -80 °C until LC-MS/MS analysis. […]

[3] = Phase 1 clinical trial, SAD (single ascending dose) study; conditions: human, in vivo
[4] = In vivo PK with diverse doses (5, 10, 20 mpk) for PK and PD co-relation
Description: In this paper, the authors based on their previous studies on 5-HT2A LKO mice and 5HT2A antagonists, try to synthesize a serial of new derivatives based on the compound 2 (Clarinex) to develop oral drug candidates of […]
Then the authors tested the pharmacokinetics of compound 11c both in rats and dogs by iv and gavage administration. Besides, the tissue distribution of compound 11c was also determined by […]
NASH and fibrosis. The following questions may need to be answered by the authors.
Comment 1: In general, after gavage administration for 8 weeks (page 178-179) or 12 weeks (page 274-275), the compound 11c mainly distributed in digestive track especially in intestines with comparatively lower plasma drug concentration as well as in the other organs.
Response: We appreciate the Reviewer’s comment. For most oral drugs, the high level of total radioactivity is often observed in gastrointestinal tract in QWBA (Quantitative Whole Body Autoradiography). In the study of QWBA for compound 11c, tissue distribution was evaluated in multiple time points. Total radioactivities in stomach and small intestine were high at early time points and decreased at late time points. […]

[5] = in vitro; conditions: rat, plasma
[6] = in vitro; conditions: human, plasma
[7] = target: CYP2D6 (Homo sapiens, UniProt P10635); assay: in vitro
CYP2D6, sequence (P10635 whole entry): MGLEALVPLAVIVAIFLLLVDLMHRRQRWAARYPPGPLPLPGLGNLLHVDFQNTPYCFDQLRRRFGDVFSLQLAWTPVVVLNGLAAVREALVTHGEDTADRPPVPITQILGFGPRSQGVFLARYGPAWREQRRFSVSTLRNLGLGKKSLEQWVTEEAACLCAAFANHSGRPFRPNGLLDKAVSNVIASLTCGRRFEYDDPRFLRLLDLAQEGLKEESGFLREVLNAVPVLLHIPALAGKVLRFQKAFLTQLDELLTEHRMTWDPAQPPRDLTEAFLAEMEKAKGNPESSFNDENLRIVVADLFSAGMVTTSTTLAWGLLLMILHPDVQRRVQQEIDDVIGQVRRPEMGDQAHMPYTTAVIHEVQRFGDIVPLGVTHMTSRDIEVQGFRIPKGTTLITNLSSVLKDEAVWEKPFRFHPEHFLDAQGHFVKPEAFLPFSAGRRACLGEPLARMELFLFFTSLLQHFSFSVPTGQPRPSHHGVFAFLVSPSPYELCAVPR

[8] = target: 5HT2A (Homo sapiens, UniProt P28223); assay: 5HT subtype antagonism assay (selectivity panel): 5HT2A; conditions: concentration not given
5HT2A, sequence (P28223 whole entry): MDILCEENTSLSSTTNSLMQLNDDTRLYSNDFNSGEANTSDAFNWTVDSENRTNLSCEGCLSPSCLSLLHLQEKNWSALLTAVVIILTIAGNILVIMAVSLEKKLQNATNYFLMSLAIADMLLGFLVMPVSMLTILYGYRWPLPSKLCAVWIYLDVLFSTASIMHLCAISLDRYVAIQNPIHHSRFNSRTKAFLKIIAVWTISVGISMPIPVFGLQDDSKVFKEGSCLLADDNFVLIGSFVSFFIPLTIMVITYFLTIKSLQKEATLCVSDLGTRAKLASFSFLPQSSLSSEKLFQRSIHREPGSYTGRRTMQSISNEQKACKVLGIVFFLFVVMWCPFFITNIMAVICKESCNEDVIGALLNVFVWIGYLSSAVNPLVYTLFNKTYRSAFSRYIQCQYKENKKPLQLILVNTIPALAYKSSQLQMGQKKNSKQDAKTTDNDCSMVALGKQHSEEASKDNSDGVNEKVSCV

SMILES: Cc1nc2n(c(=O)c1CCN1CCC(=C3c4ccc(Cl)cc4CCc4cccnc43)CC1)CCCC2O (centres unmarked) [Compound 11c]
- Selectivity 1B: % inhibition [1]: 16%
- remaining at 3 h, 10 μM [2]: 94%
- half-life [3]: > 10 h
- concentration present up to 8 hrs [4]: more than 20 nM and > 10 ng/mL
- remaining at 4 h [5]: > 99.9%
- remaining at 4 h [6]: > 98.6%
- inhibition at 10 µM [7]: 26.3%
- Selectivity 2 A: % inhibition [8]: 102%
